From PMC4414684 (Chemico-biological interactions, 2014)

Molecular target: T1, IKKβ (Homo sapiens, UniProt O14920)
T1 sequence (O14920 1-756): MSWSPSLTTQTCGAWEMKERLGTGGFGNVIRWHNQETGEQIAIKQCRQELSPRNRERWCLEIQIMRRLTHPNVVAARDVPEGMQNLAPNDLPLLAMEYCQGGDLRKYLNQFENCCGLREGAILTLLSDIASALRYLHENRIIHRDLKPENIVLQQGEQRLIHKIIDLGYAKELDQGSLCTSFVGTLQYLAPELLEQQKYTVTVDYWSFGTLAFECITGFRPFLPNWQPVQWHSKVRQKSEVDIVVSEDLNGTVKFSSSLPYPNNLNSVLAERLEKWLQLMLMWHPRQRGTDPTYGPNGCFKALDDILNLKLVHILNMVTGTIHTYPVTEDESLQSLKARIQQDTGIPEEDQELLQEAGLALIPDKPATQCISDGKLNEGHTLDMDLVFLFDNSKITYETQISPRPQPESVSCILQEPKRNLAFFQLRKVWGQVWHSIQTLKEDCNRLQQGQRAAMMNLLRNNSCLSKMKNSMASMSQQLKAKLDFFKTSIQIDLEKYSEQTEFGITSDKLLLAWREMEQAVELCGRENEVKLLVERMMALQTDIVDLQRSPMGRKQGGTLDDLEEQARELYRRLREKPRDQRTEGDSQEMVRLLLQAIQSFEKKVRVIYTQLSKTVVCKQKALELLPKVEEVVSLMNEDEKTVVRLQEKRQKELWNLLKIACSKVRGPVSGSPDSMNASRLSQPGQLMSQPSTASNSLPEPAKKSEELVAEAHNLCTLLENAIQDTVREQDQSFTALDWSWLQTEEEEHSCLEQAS
Format: biochemical
Settings: read-out: % inhibition at 100 μM

- inhibition at 100 µM: > 50%
Compound: CCCCCC(=O)/C=C/C=C\C/C=C\C/C=C\CCCC(=O)O [15-oxoETE]
